Calls of active or inactive are those of the source.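 The calls were made as follows: active = fitted half-maximal concentration for a cytotoxic signal drop no higher than ten times the top valid dose tested; inconclusive = flat curve between -70 and -30 percent, or an unreliable fit; inactive = flat within 30 percent, signal rise, or potency beyond limit.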
Experiment: viability loss in HeLa cells – cell-based, 24 h, cherry-picked samples, cytotoxicity control, dose response (AID 504726);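 also: 0% = DMSO neutral controls and -100% = mitoxantrone positive controls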
Settings: HeLa viability, CellTiter-Glo ATP luminescence, 24 h; at 35 µM (top of the series)

Row | SMILES | activity change, negative = cytotoxicity
1 | O=C(CCNc1ccc(Cc2ccncc2)cc1)c1cccc([N+](=O)[O-])c1 | -10% (inactive)
2 | Cc1noc(C)c1-c1nc(CSc2ccccc2)no1 | -16.7% (inactive)
3 | O=C(OCc1ccccc1)N1C=CC2CC1c1c(Cl)cccc12 (stereo not drawn) | -8.44% (inactive)
4 | O=C(O)c1cccc(NC2=Nc3cccc4cccc2c34)c1 | -4.32% (inactive)
5 | Cc1ccc(C(CC(=O)N2CCCCC2)c2ccccc2)c(O)c1C (stereo not drawn) | -3.99% (inactive)
6 | CC(C)CN(C(=O)CSc1nncn1C)C1CCS(=O)(=O)C1 (stereo not drawn) | 4.85% (inactive)
7 | O=C(O)/C(=C\c1cccs1)Sc1nnc(-c2ccc(F)cc2)o1 | 0.075% (inactive)
8 | O=C(O)c1ccc(-n2cccc2/C=C2/NC(=O)N(c3cccc(Cl)c3)C2=O)cc1 | -3.84% (inactive)
9 | Nc1ccc2nc3c(=O)[nH]c(=S)[nH]c3nc2c1 | -3.49% (inactive)
10 | Cc1nn(Cc2c(F)c(F)c(F)c(F)c2F)c(C)c1NC(=O)c1ccnn1C | -4.82% (inactive)
11 | CCNc1nc(NC(C)C)nc(NS(=O)(=O)c2ccc(N)cc2)n1 | -6.72% (inactive)
12 | O=C(O)c1ccc2c(c1)C(=O)/C(=C\c1ccco1)C2=O | 3.44% (inactive)
13 | NC(=S)N/N=C/c1cn(CCC(=O)O)nc1-c1cccc(Br)c1 | -7.24% (inactive)
14 | Fc1ccc(C2=CC(c3ccc(Br)o3)n3ncnc3N2)cc1 (stereo not drawn) | -14.5% (inactive)
15 | Cc1c(NC(=O)CCC2CCCCC2)cc(C(=O)N2CCOCC2)cc1[N+](=O)[O-] | 0.409% (inactive)
16 | Cc1c(Cl)cccc1NS(=O)(=O)c1ccc2c(c1)C1C=CCC1C(c1ccc(C(=O)O)cc1)N2 (stereo not drawn) | -10.8% (inactive)
17 | Cc1ccc(S(=O)(=O)/N=C/c2ccc(N(C)C)cc2)cc1 | 2.12% (inactive)
18 | O=C(CCCN1C(=O)/C(=C\c2ccco2)SC1=S)Nc1ccc(O)cc1C(=O)O | 4.85% (inactive)
19 | COc1cc(SC)ccc1C(=O)OCC(=O)N1CCN(C(C)=O)CC1 | 11.9% (inactive)
20 | O=C(COc1ccccc1Cc1ccccc1)NCCCN1CCOCC1 | -9.39% (inactive)
21 | Nc1cccc(N2C(=O)c3cccc4c(N)ccc(c34)C2=O)c1 | 6.74% (inactive)
22 | COc1ccc(NS(=O)(=O)c2cccc3ccccc23)cc1 | -7.48% (inactive)

Row | SMILES | activity change, negative = cytotoxicity
23 | COc1ccc(Cn2nnc3c(=O)[nH]c(C4CCCN(C(=O)c5ccccc5)C4)nc32)cc1 (stereo not drawn) | -5.25% (inactive)
24 | COc1ccc(NC(=O)Cc2nnc(SCC(=O)Nc3nccs3)n2C)cc1 | 5.46% (inactive)
25 | O=c1cc2c(=O)oc3cc(O)c(O)oc3c2c(O)c1O | -7.01% (inactive)
26 | Clc1ccc(C2=CC(c3ccco3)n3ncnc3N2)cc1 (stereo not drawn) | -16.1% (inactive)
27 | Cc1cccc(N2C(=O)c3cccc4c(N)ccc(c34)C2=O)c1 | 3.39% (inactive)
28 | O=C(O)c1ccccc1C1=Nc2ccc(O)cc2Oc2cc(O)ccc21 | -3.9% (inactive)
29 | COc1cc(C(=O)O)cc(NC(=O)c2ccco2)c1OC | -8.57% (inactive)
30 | COC(=O)c1cccc(COC(=O)c2ccccc2NC(=O)c2ccco2)c1 | -11.1% (inactive)
31 | Cc1ccc(-c2nnc(-c3ccc(NC(=O)c4ccco4)cc3)o2)cc1 | -2.7% (inactive)
32 | O=C(O)CCCN1C(=O)/C(=C/C=C/c2ccco2)SC1=S | -9.04% (inactive)
33 | CCc1ccc[n+](-c2[nH]c(=O)sc2/C=N/NC([S-])=Nc2ccccc2)c1 | -14.2% (inactive)
34 | CCOC(=O)C1Nc2ccccc2C2C(O)C(O)CC12 (stereo not drawn) | 7.37% (inactive)
35 | COCCNC(=O)Cn1cc(/C=C2\C(=O)NC(=O)N(c3cccc(C)c3C)C2=O)c2ccccc21 | -12.7% (inactive)
36 | Nc1ccc(C(=O)Nc2ccc3c(O)cc(S(=O)(=O)O)cc3c2)cc1 | -4.38% (inactive)
37 | Nc1cc(N)nc(SCC(=O)N2CCCCC2)n1 | 4.42% (inactive)
38 | CC(C)c1ccc(NC(=O)Cn2c(=O)oc3cccnc32)cc1 | -7.38% (inactive)
39 | CCN(CC(=O)Nc1c(F)cccc1F)C(=O)CCCc1cccs1 | -23.5% (inactive)
40 | O=C1/C(=C/c2ccco2)SC(=S)N1c1cccnc1 | -6.8% (inactive)
41 | CC(C)c1ccc(CNc2ccc([N+](=O)[O-])cn2)cc1 | -10.7% (inactive)
42 | CCCc1cc(C(=O)Nc2ccc(C(=O)c3ccc(C)cc3)cc2)n(C)n1 | 2.14% (inactive)
43 | CN(CC(=O)Nc1ccc(N2CCOCC2)cc1)C(=O)CSc1ccc(Br)cc1 | 0.641% (inactive)

Reference: PubChem BioAssay AID504726 (Broad Institute, 2011)
